This note sets out measurements from ChEMBL document CHEMBL4765464, “Discovery of BMS-986144, a Third-Generation, Pan-Genotype NS3/4A Protease Inhibitor for the Treatment of Hepatitis C Virus Infection” (J Med Chem, 2020).

A short description of data set [1]: Inhibition of recombinant full length NS3/4A protease in Hepatitis C virus subtype 1b replicon infected in human HuH7 cells preincubated for 3 days followed by substrate addition and measured after 2 hrs by renilla luciferase reporter gene assay. Type of data set: cell-based. The note with it: Huh-7. In general terms: A replicon is a self-replicating genome or part of one, used to study replication in cells.

Data set [2] is described as follows: Inhibition of recombinant full length NS3/4A protease in Hepatitis C virus subtype 2a replicon infected in human HuH7 cells preincubated for 3 days followed by substrate addition and measured after 2 hrs by renilla luciferase reporter gene assay. Type of data set: cell-based. The following applies: Huh-7.
Data set [3] can be described thus: Inhibition of recombinant full length NS3/4A protease in Hepatitis C virus subtype 3a replicon infected in human HuH7 cells preincubated for 3 days followed by substrate addition and measured after 2 hrs by renilla luciferase reporter gene assay. The format is cell-based. The following applies: Huh-7.
Data set [4] can be described thus: Inhibition of recombinant full length NS3/4A R155K mutant protease in Hepatitis C virus subtype 1a replicon infected in human HuH7 cells preincubated for 3 days followed by substrate addition and measured after 2 hrs by renilla luciferase reporter gene assay. The format is cell-based. The note with it: Huh-7.
The nature of data set [5]: Inhibition of recombinant full length NS3/4A D168V mutant protease in Hepatitis C virus subtype 1b replicon infected in human HuH7 cells preincubated for 3 days followed by substrate addition and measured after 2 hrs by renilla luciferase reporter gene assay. Type of data set: cell-based. The following applies: Huh-7.
Data set [6] can be described thus: Metabolic stability in human liver microsomes assessed as half-life incubated for 5 to 45 mins in presence of NADPH by LC-MS analysis. The following applies: time 5-45 min. Type of data set: ADME, Microsome.
Data set [7] addresses T1, Cytochrome P450 3A4 (Homo sapiens, UniProt P08684). Kind of data set: Inhibition of human CYP3A4 in human pooled liver microsomes at 0.002 to 40 uM in presence of midazolam as substrate preincubated in presence of NADPH followed by addition of substrate by LC-MS/MS analysis. The format is ADME. The following applies: TDE = time-dependent effect, dose 0.002-40 µM, time <=30 min. Background: Microsomes from liver hold many membrane-bound enzymes, among them those of drug oxidation.

In data set [8] the target is T1, Cytochrome P450 3A4. Kind of data set: Inhibition of human CYP3A4 in human pooled liver microsomes at 0.002 to 40 uM in presence of testosterone as substrate preincubated in presence of NADPH followed by addition of substrate by LC-MS/MS analysis. Type of data set: ADME. The following applies: TDE = time-dependent effect, dose 0.002-40 µM, time <=30 min.
Data set [9] is described as follows: Inhibition of recombinant full length NS3/4A protease in Hepatitis C virus subtype 3a infected in human HuH7 cells using Ac-Asp-Glu-Asp (EDANS)-Glu-Glu-Abu-(COO) Ala-Ser-Lys (DABCYL)-NH2 as substrate by FRET assay. The note with it: Huh-7.
Data set [10] in a line: Inhibition of recombinant full length NS3/4A protease in Hepatitis C virus subtype 1a replicon infected in human HuH7 cells preincubated for 3 days followed by substrate addition and measured after 2 hrs by renilla luciferase reporter gene assay. The following applies: Huh-7. Type of data set: cell-based.
Data set [11] can be described thus: Drug concentration in rat plasma at 5 mg/kg, po measured upto 24 hrs. Type of data set: ADME, organism-based. The following applies: read-out: Ct.
Data set [12] can be described thus: Drug concentration in rat liver at 5 mg/kg, po measured upto 24 hrs. The format is ADME, organism-based. The following applies: read-out: Ct.
The nature of data set [13]: Oral bioavailability in rat at 5 mg/kg. The format is ADME, organism-based. The note with it: in vivo.
A short description of data set [14]: Half-life in dog at 3 mg/kg, po or 1 mg/kg, iv. Type of data set: ADME, organism-based, Canis lupus familiaris. The note with it: in vivo.
The nature of data set [15]: Half-life in rat at 5 mg/kg, po or 1 mg/kg, iv. The note with it: in vivo. The format is ADME, organism-based.
Data set [16] can be described thus: Clearance in rat at 5 mg/kg, po or 1 mg/kg, iv. The note with it: in vivo. Type of data set: ADME, organism-based.
Data set [17] in a line: AUC in rat at 5 mg/kg, po or 1 mg/kg, iv. The format is ADME, organism-based. Also on record: dose 5 mg/kg. The note with it: in vivo.
A short description of data set [18]: Clearance in dog at 3 mg/kg, po or 1 mg/kg, iv. Type of data set: ADME, organism-based, Canis lupus familiaris. The note with it: in vivo.
Data set [19] can be described thus: Oral bioavailability in dog at 3 mg/kg. The format is ADME, organism-based, Canis lupus familiaris. The note with it: in vivo.
Data set [20] can be described thus: AUC in dog at 3 mg/kg, po or 1 mg/kg, iv. Type of data set: ADME, organism-based, Canis lupus familiaris. The note with it: in vivo. Also on record: dose 3 mg/kg.
Data set [21] in a line: Drug concentration in dog plasma at 3 mg/kg, po measured upto 24 hrs. Type of data set: ADME, organism-based, Canis lupus familiaris. The following applies: read-out: Ct.
Data set [22] can be described thus: Half-life in cynomolgus monkey at 3 mg/kg, po or 1 mg/kg, iv. The note with it: in vivo. The format is ADME, organism-based, Macaca fascicularis.
Data set [23] is described as follows: Clearance in cynomolgus monkey at 3 mg/kg, po or 1 mg/kg, iv. The format is ADME, organism-based, Macaca fascicularis. The following applies: in vivo.
The nature of data set [24]: Oral bioavailability in cynomolgus monkey at 3 mg/kg. The format is ADME, organism-based, Macaca fascicularis. The following applies: in vivo.
Data set [25] in a line: AUC in cynomolgus monkey at 3 mg/kg, po or 1 mg/kg, iv. The format is ADME, organism-based, Macaca fascicularis. Also on record: dose 3 mg/kg. The note with it: in vivo.
In data set [26] the target is T1, Cytochrome P450 3A4. Kind of data set: Inhibition of human CYP3A4 in human pooled liver microsomes in presence of testosterone as substrate preincubated for 0 mins in presence of NADPH followed by addition of substrate by LC-MS/MS analysis. Type of data set: ADME.
The target of data set [27] is T1, Cytochrome P450 3A4. Kind of data set: Inhibition of human CYP3A4 in human pooled liver microsomes in presence of midazolam as substrate preincubated for 0 mins in presence of NADPH followed by addition of substrate by LC-MS/MS analysis. The format is ADME.
Data set [28] has as its target T1, Cytochrome P450 3A4. Kind of data set: Inhibition of human CYP3A4 in human pooled liver microsomes in presence of testosterone as substrate preincubated for 30 mins in presence of NADPH followed by addition of substrate by LC-MS/MS analysis. The format is ADME.
Data set [29] has as its target T1, Cytochrome P450 3A4. Briefly: Inhibition of human CYP3A4 in human pooled liver microsomes in presence of midazolam as substrate preincubated for 30 mins in presence of NADPH followed by addition of substrate by LC-MS/MS analysis. Type of data set: ADME.
A short description of data set [30]: Toxicity in rat assessed as clinical effect measured upto 4 days. The note with it: in vivo, 96 h, time <=4 day.
Data set [31] can be described thus: Toxicity in rat assessed as histopathological changes measured upto 4 days. The following applies: in vivo, 96 h, time <=4 day.
Data set [32] is described as follows: Toxicity in rat assessed as effect on cardiovascular system by telemetry. The note with it: in vivo.
Data set [33] is described as follows: Toxicity in rabbit assessed as effect on cardiovascular system by telemetry. The arrangement: species or system Oryctolagus cuniculus. The following applies: in vivo.
Data set [34] addresses T1, Cytochrome P450 3A4. Briefly: […] of CYP3A4 in human liver microsome in presence of midazolam as substrate preincubated for upto 30 mins in presence of NADPH followed by addition of substrate by LC-MS/MS analysis. The format is ADME. The following applies: microsomes.
For data set [35], the system named is CHO. Kind of data set: Genotoxicity in Chinese Hamster CHO cells assessed as non clastogenicity by micronucleus assay. The format is toxicity, cell-based, Cricetulus griseus.
Data set [36] in a line: Cytotoxicity against human Huh-7 cells assessed as reduction in cell viability. The format is cell-based.
A short description of data set [37]: Cytotoxicity against human MT2 cells assessed as reduction in cell viability. The format is cell-based.
Data set [38] can be described thus: Genotoxicity in Salmonella typhimurium by AMES test. The following applies: salmonella enterica subsp. enterica serovar typhimurium. The format is toxicity.

T1 sequence (P08684 whole entry): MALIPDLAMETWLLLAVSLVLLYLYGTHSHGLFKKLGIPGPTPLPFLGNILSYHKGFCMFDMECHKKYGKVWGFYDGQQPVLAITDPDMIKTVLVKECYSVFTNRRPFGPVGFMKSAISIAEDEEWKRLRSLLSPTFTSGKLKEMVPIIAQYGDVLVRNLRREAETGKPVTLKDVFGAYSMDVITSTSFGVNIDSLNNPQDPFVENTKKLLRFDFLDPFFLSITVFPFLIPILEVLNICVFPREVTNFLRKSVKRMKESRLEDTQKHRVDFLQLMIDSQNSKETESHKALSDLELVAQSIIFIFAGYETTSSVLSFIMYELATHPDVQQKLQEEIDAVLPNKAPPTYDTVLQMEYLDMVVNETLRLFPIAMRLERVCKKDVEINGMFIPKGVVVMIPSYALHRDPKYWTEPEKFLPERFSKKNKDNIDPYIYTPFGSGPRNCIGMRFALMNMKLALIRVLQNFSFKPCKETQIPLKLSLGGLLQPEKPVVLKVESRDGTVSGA

For `CC[C@@H]1C[C@H](C)CC/C=C\[C@@H]2C[C@@]2(C(=O)NS(=O)(=O)C2(C)CC2)NC(=O)[C@@H]2C[C@@H](Oc3nccc4cc(O)c(F)cc34)CN2C(=O)[C@H]1NC(=O)OC(C)(C)C(F)(F)F`, the EC50 (commonly the concentration at which the effect is half-maximal) in data set [1] was determined as 1.3 nM; in [2] it was 1.9 nM; in data set [3], 48 nM; in data set [4] it was 3.9 nM; in [5], 9.5 nM. Besides, in [6], the half-life – broadly, how long it takes for the measured level to halve – worked out at 0.617 h. For the same compound, the “inhibition (INH)” value in [7] and in [8] was “Tde” in each case.
`[2H]C([2H])([2H])Oc1cc2ccnc(O[C@@H]3C[C@H]4C(=O)N[C@]5(C(=O)NS(=O)(=O)C6(C)CC6)C[C@H]5/C=C\CC[C@@H](C)C[C@@H](CC)[C@H](NC(=O)OC(C)(C)C(F)(F)F)C(=O)N4C3)c2cc1F`: the IC50 – broadly, the concentration needed to halve the response being measured – is 4.8 nM in [9]; over 40000 nM in [26]; over 40000 nM in [27]; over 33000 nM in data set [28]; 16400 nM in data set [29]. The EC50 in data set [10] came to 2.3 nM; in data set [1], 0.7 nM; in data set [2], 1 nM; in data set [3], 12 nM; in data set [4] it was 8 nM; in [5], 5.8 nM. Also, the half-life in data set [6] is 0.55 h; in [14] it was 8.7 h; in data set [15], 13.4 h; in data set [22] it was 1.2 h. In addition, the concentration at 24 h is 3.85 µM in data set [11], 4.16 µM in data set [12] and 0.163 µM in [21]. Also, the bioavailability (usually dose-corrected exposure relative to a reference, in per cent) in [13] was 57%; in [19] it was 71%; in [24] it was 23.9%. Besides, the clearance was found to be 0.18 mL/min/kg in data set [16], 1.1 mL/min/kg in data set [18] and 12.1 mL/min/kg in [23]. In addition, the AUC (usually the area under the concentration-time curve, a measure of exposure) in data set [17] came out at 310 µM·h; in [20], 39.8 µM·h; in [25] it was 0.19 µM·h. The “inhibition (INH)” value in [7] and in [8] was “Tde” each time. Moreover, the Activity entry is on record as “Non-Toxic” in [30]; “Non-Toxic” in data set [31]; “Non-Toxic” in data set [32]; “Non-Toxic” in data set [33]; “Not Active” in data set [34]; “Non-Toxic” in data set [35]. Further, in [38], the Activity entry is reported as “Non-Toxic”. The cytotoxic concentration (CC50) (as a rule, the concentration giving 50% cytotoxicity) in data set [36] worked out at 25000 nM; in data set [37] it was 34000 nM.
